Literature values as cited in US7517991B2, “N-sulfonylpiperidine cannabinoid receptor 1 antagonists” (Bristol-Myers Squibb Company, priority 2004, dated 2009).
Like-named read-outs stand apart in the source and are kept apart here.

What was measured:
[1] = human subjects, 16 week trial period, Phase IIb
[2] = chronic administration for two weeks

Row | Compound | body weight [1] | body weight [2]
1 | Cc1c(C(=O)NN2CCCCC2)nn(-c2ccc(Cl)cc2Cl)c1-c1ccc(Cl)cc1 [SR-141716] | dose-dependently reduced body weight | 
2 | Cc1c(C(=O)NN2CCCCC2)nn(-c2ccc(Cl)cc2Cl)c1-c1ccc(I)cc1 [AM-251] |  | substantial body weight reduction
